Results as given in US8133893B2, “Trazodone and trazodone hydrochloride in purified form” (Aziende Chimiche Riunite Angelini Francesco A.C.R.A.F. …, priority 2007, dated 2012).
Values joined by “and” are separate entries in the source; they are usually repeats but may differ in a detail not shown here. Identical values can stand only once.

Experiments:
[1] = as reported in TOXNET, National Library of Medicine; cited from earlier work
[2] = system: Salmonella typhimurium strain TA1535; test: bacterial reverse mutation test (standard plate incorporation assay); assay type: cell-based
Description: The genotoxic activity of N-(3-chlorophenyl)-N′-(3-chloropropyl)-piperazine has been assessed on histidine-dependent auxotrophic mutants of Salmonella typhimurium strains TA1535, TA1537, TA 98 and TA100, and on tryptophan-dependent mutants of Escherichia coli strain WP2 uvrA (pKM101), exposed to a solution of N-(3-chlorophenyl)-N′-(3-chloropropyl)-piperazine in dimethylsulphoxide (DMSO) and using DMSO as negative control. Two independent mutation tests were performed, both in the presence and absence of a liver microsomal fraction (S9 mix) of rat treated with phenobarbital and 5,6-benzoflavone. Tests were standard plate incorporation assays and performed according to the current regulatory guidelines. A substantial increase in reversion to prototrophy was obtained on strain TA1535 in the presence of S9 mix. In the two assays the increase was concentration related and reached, following exposure to 1500 μg per plate of N-(3-chlorophenyl)-N′-(3-chloropropyl)-piperazine, 6.4 and 5.1 times the control value.

Row | Molecule | genotoxicity [1] | genotoxic activity (conclusion) ([2]; bacterial system, following metabolic activation (S9 mix)) | increase in reversion to prototrophy ([2]; strain TA1535, in the presence of S9 mix (rat liver microsomal fraction), 1500 μg per plate, two independent assays, DMSO negative control)
1 | 2,2-Dichloroethylamine | known genotoxic substances | – | –
2 | ClCCCN1CCN(c2cccc(Cl)c2)CC1 [N-(3-chlorophenyl)-N′-(3-chloropropyl)-piperazine] | – | exhibited genotoxic activity | 6.4 times the control value and 5.1 times the control value
